Assay [1] can be described thus: Direct 1H NMR titration, 1:1 binding model. The note with it: 20 mM NaH2PO4 buffered (pH 7.4) D2O. Here is the method:
A direct titration was performed between the host and guest. The concentration of the host was kept constant while varying the concentration of the guest and the change in chemical shift of a selected host signal was measured. The change in chemical shift as a function of guest concentration was fitted to a 1:1 binding model to determine the Ka. In some cases, the concentration of guest was fixed and host concentration was varied, depending on the availability of a suitable ^1H NMR peak whose chemical shift change could be easily monitored.
1:1 Binding Model for NMR

The subject of another assay is ketamine anesthesia. Nature of the assay: EEG power and mean arterial pressure during continuous ketamine infusion. Type of assay: in vivo, rat. The note with it: escalating phenylephrine infusion 4 to 10 μg/kg/min; n=3.

SMILES strings stand for the structures. Bounds are passed on as bounds.

Consider `O=S(=O)(O)c1cc2c(O)c(c1)Cc1cc(S(=O)(=O)O)cc(c1O)Cc1cc(S(=O)(=O)O)cc(c1O)Cc1cc(S(=O)(=O)O)cc(c1O)C2` [4-sulfo calix[4]arene], for which the “Binding Constant with Host (Ka), morphine” value in assay [1] is “(4.9±0.3)×10^4 M^−1”. Moreover, in assay [1] (1:1 model), the “Binding Constant with Host (Ka), cocaine” value is recorded as “(4.3±1.5)×10^4 M^−1”; the “Binding Constant with Host (Ka), ketamine” value is ~10^5 M^−1; the “Binding Constant with Host (Ka), methamphetamine” value was “(3.8±0.6)×10^4 M^−1”; the “Binding Constant with Host (Ka), phencyclidine” value was “(5.0±0.6)×10^4 M^−1”. Further, the “Binding Constant with Host (Ka), ketamine” value in assay [1] (1:1 model, listed as 4-suldo calix[4]arene) is on record as ~10^5 M^−1.
Take `O=C1N2CN3C(=O)N4CN5C(=O)N6CN7C(=O)N8CN9C(=O)N%10CN%11C(=O)N%12CN%13C(=O)N%14CN1C1C2N2CN%15C(=O)N(CN%16C(=O)N(CN%17C(=O)N(CN%18C(=O)N(CN%19C(=O)N(CN%20C(=O)N(CN1C2=O)C%14C%13%20)C%12C%11%19)C%10C9%18)C8C7%17)C6C5%16)C4C3%15` (centres unmarked) [CB[7], cucurbit[7]uril]: the “Binding Constant with Host (Ka), morphine” value in assay [1] is listed as <10^3 M^−1.
`CNC[C@H](O)c1cccc(O)c1` [phenylephrine]: in the assay with ketamine anesthesia, the “effect on MAP and EEG power during steady state shallow ketamine anesthesia” value was “significant MAP increases without effects on EEG power”.

The record behind these values is patent US9956229B2, “Acyclic cucurbit[n]uril type molecular containers to treat intoxication and decrease relapse rate in substance abuse disorders” (UNIVERSITY OF MARYLAND, COLLEGE PARK, priority 2014, dated 2018).
